As a reminder, the inhibition is the change of the read-out against control, counted positive when it falls.

One data set deals with C57BL/6 mice. Put plainly: Transient forebrain ischemia (BCCAO) mice model, overall effect and tolerability. The format is in vivo. How it is done: […]. The animals were housed five per cage, allowed access to water and food ad libitum; the environment was maintained at a constant temperature (23 ± 1 °C) and humidity (60 ± 10%) under a 12-h light/dark cycle (the lights were on from 07:30 to 19:30 h). Forty mice were divided equally into four groups (sham + vehicle, n = 10; sham + drug, n = 10; bilateral common carotid artery occluded ischemia + vehicle, n = 10; bilateral common carotid artery occluded ischemia + drug, n = 10) for experiment. The treatment and maintenance of the animals were carried out in accordance with the Animal Care and Use Guidelines of Dong-A University, Korea. All in vivo experiments were performed according to the protocols approved by the Institutional Animal Care and Use Committee of Dong-A University (approved protocol numbers: DIACUC-approved-17-20) and were in accordance with the National Institutes of Health guidelines.
C57BL/6 mice were anesthetized with 2.0% isoflurane and 70% nitrous oxide in oxygen and subjected to transient forebrain ischemia. The transient forebrain ischemia was induced by bilateral common carotid artery occlusion (BCCAO) with aneurysm clips for 20 min, and the circulation was restored by removing the clips. […] The regional cerebral blood flow (rCBF) was monitored using laser Doppler flowmetry (Perimed, PF5010, JarFalla, Sweden). […]

The target in another data set is T1, h5-HT1AR (Homo sapiens, UniProt P08908).
T1 construct: host or cells: Ba/F3 (murine pro-B)
T1 sequence (P08908 1-422): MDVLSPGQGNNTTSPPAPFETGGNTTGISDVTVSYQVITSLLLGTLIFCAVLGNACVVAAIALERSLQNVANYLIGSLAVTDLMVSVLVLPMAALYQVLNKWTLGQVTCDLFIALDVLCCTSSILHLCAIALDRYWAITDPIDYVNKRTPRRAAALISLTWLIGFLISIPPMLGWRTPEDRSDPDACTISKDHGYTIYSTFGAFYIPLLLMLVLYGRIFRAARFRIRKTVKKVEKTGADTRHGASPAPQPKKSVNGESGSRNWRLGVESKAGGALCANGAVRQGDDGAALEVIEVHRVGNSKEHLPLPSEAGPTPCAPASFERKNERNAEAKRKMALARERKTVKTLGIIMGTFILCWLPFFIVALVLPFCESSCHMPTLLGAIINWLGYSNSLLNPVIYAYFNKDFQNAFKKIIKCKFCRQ
The experiment in a line: GPCR functional assay: intracellular Ca2+ mobilization in Ba/F3 cells. The format is cell-based.

On to `COc1c(O)cc2c(c1O)C(=O)c1c(cc(C)c(O)c1OC)C2=O` [Aurantio-obtusin, 1,3,7-trihydroxy-2,8-dimethoxy-6-methylanthracene-9,10-dione], for which the “Toxicity of treatment alone (sham + drug)” value in the data set with C57BL/6 mice (10 mg/kg, p.o., once daily, compared to sham group) is “no toxicity”. For the same compound, the “Effect in BCCAO model, pilot study” value with C57BL/6 mice (1, 5 and 10 mg/kg tested, result for 10 mg/kg) is on record as “effective”. Besides, on h5-HT1AR (100 µM test compound, control response to serotonin (2.5 μM)), the “% Stimulation (agonist effect) of control agonist response, 5-HT1A (h)” value is −6.10 ± 0.00%. For the same compound, the inhibition at 100 µM on h5-HT1AR (BaF3, read-out: % Inhibition (antagonist effect) of control agonist response, 5-HT1A (h) (converted)) was 10.1%.
